Measured values reported in PubChem BioAssay (NCI).
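Interpolation was linear, between the two tested concentrations surrounding the appropriate level; five concentrations were tested over 48 hours in 96-well plates. TGI denotes the concentration required for complete inhibition of growth.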

Experiments:
Assay in all cases: DTP human tumour cell line panel, 48 h
DU-145 prostate = system: DU-145 prostate
UACC-62 melanoma = system: UACC-62 melanoma
HS 578T breast = system: HS 578T breast
OVCAR-3 ovarian = system: OVCAR-3 ovarian
BT-549 breast = system: BT-549 breast
IGROV1 ovarian = system: IGROV1 ovarian
NCI-H23 lung = system: NCI-H23 lung
SF-539 CNS = system: SF-539 CNS
ACHN renal = system: ACHN renal
CAKI-1 renal = system: CAKI-1 renal
SNB-19 CNS = system: SNB-19 CNS
OVCAR-5 ovarian = system: OVCAR-5 ovarian
SR leukemia = system: SR leukemia
RPMI-8226 leukemia = system: RPMI-8226 leukemia
HT29 colon = system: HT29 colon
MOLT-4 leukemia = system: MOLT-4 leukemia
U251 CNS = system: U251 CNS
HOP-62 NSCLC = system: HOP-62 NSCLC
SF-268 CNS = system: SF-268 CNS
MDA-MB-231 breast = system: MDA-MB-231 breast
HCT-15 colon = system: HCT-15 colon
LOX IMVI melanoma = system: LOX IMVI melanoma
EKVX NSCLC = system: EKVX NSCLC
NCI-H460 lung = system: NCI-H460 lung
MALME-3M melanoma = system: MALME-3M melanoma
SW-620 colon = system: SW-620 colon
K-562 leukemia = system: K-562 leukemia
MCF7 breast = system: MCF7 breast
NCI/ADR-RES ovarian = system: NCI/ADR-RES ovarian
TK-10 renal = system: TK-10 renal
HL-60(TB) leukemia = system: HL-60(TB) leukemia
NCI-H226 lung = system: NCI-H226 lung
MDA-N = system: MDA-N
KM12 colon = system: KM12 colon
A498 renal = system: A498 renal
PC-3 prostate = system: PC-3 prostate
COLO 205 colon = system: COLO 205 colon
M14 melanoma = system: M14 melanoma
SF-295 CNS = system: SF-295 CNS
CCRF-CEM leukemia = system: CCRF-CEM leukemia
UACC-257 melanoma = system: UACC-257 melanoma
HCT-116 colon = system: HCT-116 colon
SK-MEL-5 melanoma = system: SK-MEL-5 melanoma
786-0 renal = system: 786-0 renal
SNB-75 CNS = system: SNB-75 CNS
SK-MEL-28 melanoma = system: SK-MEL-28 melanoma
SK-OV-3 ovarian = system: SK-OV-3 ovarian
MDA-MB-435 = system: MDA-MB-435
SK-MEL-2 melanoma = system: SK-MEL-2 melanoma
OVCAR-8 ovarian = system: OVCAR-8 ovarian
SN12C renal = system: SN12C renal
RXF 393 renal = system: RXF 393 renal
NCI-H522 lung = system: NCI-H522 lung
T-47D breast = system: T-47D breast
HCC-2998 colon = system: HCC-2998 colon
HOP-92 NSCLC = system: HOP-92 NSCLC
A549 NSCLC = system: A549 NSCLC
UO-31 renal = system: UO-31 renal

Measured: TGI

Cn1c(=O)oc2cc(C(=S)N3CCCCC3)ccc21
> 100 µM: DU-145 prostate | UACC-62 melanoma | HS 578T breast | OVCAR-3 ovarian | BT-549 breast | IGROV1 ovarian | NCI-H23 lung | SF-539 CNS | ACHN renal | CAKI-1 renal | SNB-19 CNS | OVCAR-5 ovarian | SR leukemia | RPMI-8226 leukemia | HT29 colon | MOLT-4 leukemia | U251 CNS | HOP-62 NSCLC | SF-268 CNS | MDA-MB-231 breast | HCT-15 colon | LOX IMVI melanoma | EKVX NSCLC | NCI-H460 lung | MALME-3M melanoma | SW-620 colon | K-562 leukemia | MCF7 breast | NCI/ADR-RES ovarian | TK-10 renal | HL-60(TB) leukemia | NCI-H226 lung | MDA-N | KM12 colon | A498 renal | PC-3 prostate | COLO 205 colon | M14 melanoma | SF-295 CNS | CCRF-CEM leukemia | UACC-257 melanoma | HCT-116 colon | SK-MEL-5 melanoma | 786-0 renal | SNB-75 CNS | SK-MEL-28 melanoma | SK-OV-3 ovarian | MDA-MB-435 | SK-MEL-2 melanoma | OVCAR-8 ovarian | SN12C renal | RXF 393 renal

O=C1[C@H](O)[C@@H]2CCC[C@@]23CCCN13
> 100 µM: DU-145 prostate | UACC-62 melanoma | HS 578T breast | OVCAR-3 ovarian | IGROV1 ovarian | NCI-H23 lung | SF-539 CNS | NCI-H522 lung | ACHN renal | CAKI-1 renal | OVCAR-5 ovarian | SR leukemia | RPMI-8226 leukemia | HT29 colon | T-47D breast | MOLT-4 leukemia | U251 CNS | HOP-62 NSCLC | SF-268 CNS | HCT-15 colon | HCC-2998 colon | LOX IMVI melanoma | EKVX NSCLC | NCI-H460 lung | SW-620 colon | K-562 leukemia | MCF7 breast | NCI/ADR-RES ovarian | TK-10 renal | HL-60(TB) leukemia | NCI-H226 lung | MDA-N | KM12 colon | A498 renal | COLO 205 colon | M14 melanoma | SF-295 CNS | CCRF-CEM leukemia | UACC-257 melanoma | HCT-116 colon | SK-MEL-5 melanoma | 786-0 renal | HOP-92 NSCLC | SNB-75 CNS | SK-OV-3 ovarian | MDA-MB-435 | OVCAR-8 ovarian | A549 NSCLC | UO-31 renal | SN12C renal | RXF 393 renal
